Results from patent US9790210B2, “N-(monocyclic aryl),N'-pyrazolyl-urea, thiourea, guanidine and cyanoguanidine compounds as TrkA kinase inhibitors” (Array BioPharma Inc., priority 2012, dated 2017).

Experiments:
Test in all cases: KinaseProfiler
Type in all cases: biochemical
Settings in all cases: 10 μM, ATP near Km
MARK2 = molecular target: T1, MARK2 (Homo sapiens, UniProt Q7KZI7)
T1 construct: purchased Millipore, Inc. (KinaseProfiler service)
Description: (§1) A representative compound (Example 15) of the invention was tested for off-target kinase activity at a concentration of 10 μM by Millipore, Inc. in their KinaseProfiler™ service against all the kinases available in their full kinase panel. The compound was run in duplicate at a concentration of ATP near the Km for each individual kinase according to Millipore's specifications. The results are shown in Table B. Data are reported as percent of control (POC) and are the average of the two replicates.

CK1gamma3 = molecular target: T2, CK1gamma3 (Homo sapiens, UniProt Q9Y6M4)
T2 construct: purchased Millipore, Inc. (KinaseProfiler service)
Description: as §1

NEK11 = molecular target: T3, NEK11 (Homo sapiens, UniProt Q8NG66)
T3 construct: purchased Millipore, Inc. (KinaseProfiler service)
Description: as §1

EphB4 = molecular target: T4, EphB4 (Homo sapiens, UniProt P54760)
T4 construct: purchased Millipore, Inc. (KinaseProfiler service)
Description: as §1

AMPK(A1/B1/G1) = molecular target: T5, AMPK(A1/B1/G1) (Homo sapiens, UniProt Q13131)
T5 construct: purchased Millipore (KinaseProfiler service)
Description: as §1

Rsk1 = molecular target: T6, Rsk1 (Homo sapiens, UniProt Q15418)
T6 construct: purchased Millipore, Inc. (KinaseProfiler service)
Description: as §1

Abl-P = molecular target: T7, Abl-P (Homo sapiens, UniProt P00519)
T7 construct: purchased Millipore (KinaseProfiler service)
Description: as §1

Axl = molecular target: T8, Axl (Homo sapiens, UniProt P30530)
T8 construct: purchased Millipore (KinaseProfiler service)
Description: as §1

NLK = molecular target: T9, NLK (Homo sapiens, UniProt Q9UBE8)
T9 construct: purchased Millipore, Inc. (KinaseProfiler service)
Description: as §1

MAP4K2 = molecular target: T10, MAP4K2 (Homo sapiens, UniProt Q12851)
T10 construct: purchased Millipore, Inc. (KinaseProfiler service)
Description: as §1

CLK3 = molecular target: T11, CLK3 (Homo sapiens, UniProt P49761)
T11 construct: purchased Millipore, Inc. (KinaseProfiler service)
Description: as §1

PRKG1alpha = molecular target: T12, PRKG1alpha (Homo sapiens, UniProt Q13976)
T12 construct: purchased Millipore, Inc. (KinaseProfiler service)
Description: as §1

Rse = molecular target: T13, Rse (Homo sapiens, UniProt Q06418)
T13 construct: purchased Millipore, Inc. (KinaseProfiler service)
Description: as §1

Fms = molecular target: T14, Fms (Homo sapiens, UniProt P07333)
T14 construct: purchased Millipore, Inc. (KinaseProfiler service)
Description: as §1

JNK2alpha2 = molecular target: T15, JNK2alpha2 (Homo sapiens, UniProt P45984)
T15 construct: purchased Millipore, Inc. (KinaseProfiler service)
Description: as §1

p38gamma = molecular target: T16, p38gamma (Homo sapiens, UniProt P53778)
T16 construct: purchased Millipore, Inc. (KinaseProfiler service)
Description: as §1

CHK2 = molecular target: T17, CHK2 (Homo sapiens, UniProt O96017)
T17 construct: purchased Millipore, Inc. (KinaseProfiler service)
Description: as §1

PKCdelta = molecular target: T18, PKCdelta (Homo sapiens, UniProt Q05655)
T18 construct: purchased Millipore, Inc. (KinaseProfiler service)
Description: as §1

TAO3 = molecular target: T19, TAO3 (Homo sapiens, UniProt Q9H2K8)
T19 construct: purchased Millipore, Inc. (KinaseProfiler service)
Description: as §1

NEK3 = molecular target: T20, NEK3 (Homo sapiens, UniProt P51956)
T20 construct: purchased Millipore, Inc. (KinaseProfiler service)
Description: as §1

WNK2 = molecular target: T21, WNK2 (Homo sapiens, UniProt Q9Y3S1)
T21 construct: purchased Millipore, Inc. (KinaseProfiler service)
Description: as §1

Hck = molecular target: T22, Hck (Homo sapiens, UniProt P08631)
T22 construct: purchased Millipore, Inc. (KinaseProfiler service)
Description: as §1

EphB2 = molecular target: T23, EphB2 (Homo sapiens, UniProt P29323)
T23 construct: purchased Millipore, Inc. (KinaseProfiler service)
Description: as §1

p38delta = molecular target: T24, p38delta (Homo sapiens, UniProt O15264)
T24 construct: purchased Millipore, Inc. (KinaseProfiler service)
Description: as §1

CAMK2b = molecular target: T25, CAMK2b (Homo sapiens, UniProt Q13554)
T25 construct: purchased Millipore (KinaseProfiler service)
Description: as §1

Pim-1 = molecular target: T26, Pim-1 (Homo sapiens, UniProt P11309)
T26 construct: purchased Millipore, Inc. (KinaseProfiler service)
Description: as §1

KIT = molecular target: T27, KIT (Homo sapiens, UniProt P10721)
T27 construct: purchased Millipore, Inc. (KinaseProfiler service)
Description: as §1

SGK3 = molecular target: T28, SGK3 (Homo sapiens, UniProt Q96BR1)
T28 construct: purchased Millipore, Inc. (KinaseProfiler service)
Description: as §1

Tie2 = molecular target: T29, Tie2 (Homo sapiens, UniProt Q02763)
T29 construct: purchased Millipore, Inc. (KinaseProfiler service)
Description: as §1

FAK2 = molecular target: T30, FAK2 (Homo sapiens, UniProt Q14289)
T30 construct: purchased Millipore, Inc. (KinaseProfiler service)
Description: as §1

DAPK1 = molecular target: T31, DAPK1 (Homo sapiens, UniProt P53355)
T31 construct: purchased Millipore, Inc. (KinaseProfiler service)
Description: as §1

Plk2 = molecular target: T32, Plk2 (Homo sapiens, UniProt Q9NYY3)
T32 construct: purchased Millipore, Inc. (KinaseProfiler service)
Description: as §1

Ret = molecular target: T33, Ret (Homo sapiens, UniProt P07949)
T33 construct: purchased Millipore, Inc. (KinaseProfiler service)
Description: as §1

CK2alpha2 = molecular target: T34, CK2alpha2 (Homo sapiens, UniProt P19784)
T34 construct: purchased Millipore, Inc. (KinaseProfiler service)
Description: as §1

Pim-3 = molecular target: T35, Pim-3 (Homo sapiens, UniProt Q86V86)
T35 construct: purchased Millipore, Inc. (KinaseProfiler service)
Description: as §1

FGFR2 = molecular target: T36, FGFR2 (Homo sapiens, UniProt P21802)
T36 construct: purchased Millipore, Inc. (KinaseProfiler service)
Description: as §1

ROCK-II = molecular target: T37, ROCK-II (Homo sapiens, UniProt O75116)
T37 construct: purchased Millipore, Inc. (KinaseProfiler service)
Description: as §1

GSK3alpha = molecular target: T38, GSK3alpha (Homo sapiens, UniProt P49840)
T38 construct: purchased Millipore, Inc. (KinaseProfiler service)
Description: as §1

PKCepsilon = molecular target: T39, PKCepsilon (Homo sapiens, UniProt Q02156)
T39 construct: purchased Millipore, Inc. (KinaseProfiler service)
Description: as §1

p70S6K = molecular target: T40, p70S6K (Homo sapiens, UniProt P23443)
T40 construct: purchased Millipore, Inc. (KinaseProfiler service)
Description: as §1

MYLK = molecular target: T41, MYLK (Homo sapiens, UniProt Q15746)
T41 construct: purchased Millipore, Inc. (KinaseProfiler service)
Description: as §1

T25 sequence (Q13554 whole entry): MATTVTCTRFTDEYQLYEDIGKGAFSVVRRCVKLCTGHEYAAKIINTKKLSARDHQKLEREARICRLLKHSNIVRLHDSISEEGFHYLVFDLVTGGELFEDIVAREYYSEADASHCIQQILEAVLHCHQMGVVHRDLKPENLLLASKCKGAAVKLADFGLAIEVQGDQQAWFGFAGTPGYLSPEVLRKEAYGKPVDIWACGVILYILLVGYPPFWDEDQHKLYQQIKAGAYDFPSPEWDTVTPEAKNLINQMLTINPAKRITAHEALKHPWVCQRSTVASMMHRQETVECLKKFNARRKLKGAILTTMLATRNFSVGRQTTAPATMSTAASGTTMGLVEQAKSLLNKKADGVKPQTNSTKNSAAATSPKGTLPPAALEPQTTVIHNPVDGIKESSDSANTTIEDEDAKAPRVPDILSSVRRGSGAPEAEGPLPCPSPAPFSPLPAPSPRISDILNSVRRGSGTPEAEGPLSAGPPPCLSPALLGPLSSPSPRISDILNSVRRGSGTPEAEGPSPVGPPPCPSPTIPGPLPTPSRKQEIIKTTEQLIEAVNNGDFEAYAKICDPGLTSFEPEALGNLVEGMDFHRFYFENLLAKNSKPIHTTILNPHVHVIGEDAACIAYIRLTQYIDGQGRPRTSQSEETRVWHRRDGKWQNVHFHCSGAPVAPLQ
T27 sequence (P10721 26-976): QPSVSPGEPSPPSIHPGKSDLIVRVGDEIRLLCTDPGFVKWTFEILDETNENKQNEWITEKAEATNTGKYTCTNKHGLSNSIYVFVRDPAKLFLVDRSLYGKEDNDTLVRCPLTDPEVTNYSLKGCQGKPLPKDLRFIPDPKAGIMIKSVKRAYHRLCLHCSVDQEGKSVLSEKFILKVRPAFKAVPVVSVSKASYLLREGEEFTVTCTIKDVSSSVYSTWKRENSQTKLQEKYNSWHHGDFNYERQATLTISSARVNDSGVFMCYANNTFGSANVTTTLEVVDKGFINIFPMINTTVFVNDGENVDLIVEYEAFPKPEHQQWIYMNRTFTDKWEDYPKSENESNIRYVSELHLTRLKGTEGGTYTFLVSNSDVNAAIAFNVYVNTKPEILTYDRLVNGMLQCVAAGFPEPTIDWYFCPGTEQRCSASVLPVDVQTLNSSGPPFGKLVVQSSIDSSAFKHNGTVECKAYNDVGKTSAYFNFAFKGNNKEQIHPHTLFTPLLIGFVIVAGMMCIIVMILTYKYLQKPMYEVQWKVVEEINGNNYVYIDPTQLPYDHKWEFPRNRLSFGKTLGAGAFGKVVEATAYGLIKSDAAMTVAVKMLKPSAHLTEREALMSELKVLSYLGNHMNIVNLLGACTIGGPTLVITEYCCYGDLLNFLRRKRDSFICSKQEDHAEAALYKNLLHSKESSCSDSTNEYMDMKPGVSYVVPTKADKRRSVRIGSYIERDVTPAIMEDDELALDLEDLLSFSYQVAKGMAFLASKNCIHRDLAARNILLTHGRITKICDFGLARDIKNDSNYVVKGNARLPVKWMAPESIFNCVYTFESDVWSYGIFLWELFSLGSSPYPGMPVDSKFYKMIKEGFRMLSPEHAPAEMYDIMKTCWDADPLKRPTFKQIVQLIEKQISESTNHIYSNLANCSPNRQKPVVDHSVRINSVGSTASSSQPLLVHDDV
T7 sequence (P00519 27-1130 limits assumed): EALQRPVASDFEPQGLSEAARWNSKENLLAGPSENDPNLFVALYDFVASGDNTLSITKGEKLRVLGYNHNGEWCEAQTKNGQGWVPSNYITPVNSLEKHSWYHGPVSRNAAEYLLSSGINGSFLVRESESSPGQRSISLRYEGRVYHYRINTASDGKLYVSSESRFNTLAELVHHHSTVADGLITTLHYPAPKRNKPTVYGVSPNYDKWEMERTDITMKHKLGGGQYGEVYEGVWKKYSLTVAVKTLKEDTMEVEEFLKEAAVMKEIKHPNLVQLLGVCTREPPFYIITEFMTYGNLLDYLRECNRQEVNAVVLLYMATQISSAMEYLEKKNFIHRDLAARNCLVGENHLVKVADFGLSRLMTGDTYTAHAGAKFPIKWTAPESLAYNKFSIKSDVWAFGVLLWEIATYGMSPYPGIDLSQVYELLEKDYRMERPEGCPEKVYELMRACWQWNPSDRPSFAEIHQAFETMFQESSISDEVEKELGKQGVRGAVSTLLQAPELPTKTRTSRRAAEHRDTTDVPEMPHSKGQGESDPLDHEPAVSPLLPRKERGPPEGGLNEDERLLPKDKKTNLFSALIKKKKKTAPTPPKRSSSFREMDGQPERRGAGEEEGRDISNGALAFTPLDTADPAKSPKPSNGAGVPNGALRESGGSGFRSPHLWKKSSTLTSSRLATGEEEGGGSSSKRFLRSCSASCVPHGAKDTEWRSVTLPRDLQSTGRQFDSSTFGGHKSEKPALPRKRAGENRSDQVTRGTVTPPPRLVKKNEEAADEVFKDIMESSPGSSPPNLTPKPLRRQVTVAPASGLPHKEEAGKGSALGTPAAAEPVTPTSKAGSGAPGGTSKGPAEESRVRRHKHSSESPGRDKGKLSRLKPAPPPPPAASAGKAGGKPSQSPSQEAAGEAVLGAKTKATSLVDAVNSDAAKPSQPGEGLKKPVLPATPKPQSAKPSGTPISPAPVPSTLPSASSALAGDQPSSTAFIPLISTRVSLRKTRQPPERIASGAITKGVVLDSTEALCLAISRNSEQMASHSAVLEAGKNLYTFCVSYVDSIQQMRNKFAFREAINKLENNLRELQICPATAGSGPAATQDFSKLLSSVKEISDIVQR
T32 sequence (Q9NYY3 whole entry): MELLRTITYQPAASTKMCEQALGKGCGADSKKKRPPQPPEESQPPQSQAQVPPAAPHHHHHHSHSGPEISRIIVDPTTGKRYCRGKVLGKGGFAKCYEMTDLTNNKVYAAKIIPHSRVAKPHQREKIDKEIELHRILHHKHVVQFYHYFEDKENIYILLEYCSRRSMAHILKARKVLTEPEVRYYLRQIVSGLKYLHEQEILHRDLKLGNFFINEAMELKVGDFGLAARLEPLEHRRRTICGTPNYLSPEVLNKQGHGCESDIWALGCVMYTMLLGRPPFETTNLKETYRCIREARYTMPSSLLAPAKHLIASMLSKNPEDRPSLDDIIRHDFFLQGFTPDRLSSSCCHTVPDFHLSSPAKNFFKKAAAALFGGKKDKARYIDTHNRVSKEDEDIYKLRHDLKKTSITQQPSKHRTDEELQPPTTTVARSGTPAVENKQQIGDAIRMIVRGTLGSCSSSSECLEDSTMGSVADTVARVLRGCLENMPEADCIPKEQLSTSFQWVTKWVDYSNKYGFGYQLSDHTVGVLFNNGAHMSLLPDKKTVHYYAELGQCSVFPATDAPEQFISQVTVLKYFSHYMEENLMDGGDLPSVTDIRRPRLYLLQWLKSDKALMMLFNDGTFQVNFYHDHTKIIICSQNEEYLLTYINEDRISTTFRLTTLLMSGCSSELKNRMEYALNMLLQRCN
T30 sequence (Q14289 whole entry): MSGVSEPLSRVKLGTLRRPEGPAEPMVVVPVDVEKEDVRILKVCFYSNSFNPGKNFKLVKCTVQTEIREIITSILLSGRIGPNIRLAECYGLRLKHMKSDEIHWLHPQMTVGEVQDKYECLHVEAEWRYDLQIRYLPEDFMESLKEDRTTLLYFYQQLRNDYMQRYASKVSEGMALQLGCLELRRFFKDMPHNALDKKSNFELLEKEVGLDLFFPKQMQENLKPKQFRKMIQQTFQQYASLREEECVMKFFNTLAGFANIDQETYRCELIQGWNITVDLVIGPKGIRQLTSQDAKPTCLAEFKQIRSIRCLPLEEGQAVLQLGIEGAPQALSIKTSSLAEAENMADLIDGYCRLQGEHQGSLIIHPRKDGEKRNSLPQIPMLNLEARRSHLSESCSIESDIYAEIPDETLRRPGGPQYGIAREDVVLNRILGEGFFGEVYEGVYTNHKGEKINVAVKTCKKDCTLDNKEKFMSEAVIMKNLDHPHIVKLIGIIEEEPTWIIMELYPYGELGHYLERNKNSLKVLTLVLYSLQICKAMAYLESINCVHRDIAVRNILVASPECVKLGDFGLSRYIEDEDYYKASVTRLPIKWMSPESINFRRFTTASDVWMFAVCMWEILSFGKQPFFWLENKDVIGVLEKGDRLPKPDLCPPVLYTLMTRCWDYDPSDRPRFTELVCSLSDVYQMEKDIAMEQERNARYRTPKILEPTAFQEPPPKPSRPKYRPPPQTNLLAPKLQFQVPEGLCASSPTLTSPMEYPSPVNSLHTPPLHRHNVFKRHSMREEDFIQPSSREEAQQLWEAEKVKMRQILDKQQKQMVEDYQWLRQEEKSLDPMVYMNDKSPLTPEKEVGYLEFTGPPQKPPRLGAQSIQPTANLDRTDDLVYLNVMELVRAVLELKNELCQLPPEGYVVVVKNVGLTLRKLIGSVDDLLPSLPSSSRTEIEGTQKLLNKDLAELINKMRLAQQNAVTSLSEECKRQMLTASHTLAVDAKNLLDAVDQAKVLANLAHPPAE
T17 sequence (O96017 whole entry): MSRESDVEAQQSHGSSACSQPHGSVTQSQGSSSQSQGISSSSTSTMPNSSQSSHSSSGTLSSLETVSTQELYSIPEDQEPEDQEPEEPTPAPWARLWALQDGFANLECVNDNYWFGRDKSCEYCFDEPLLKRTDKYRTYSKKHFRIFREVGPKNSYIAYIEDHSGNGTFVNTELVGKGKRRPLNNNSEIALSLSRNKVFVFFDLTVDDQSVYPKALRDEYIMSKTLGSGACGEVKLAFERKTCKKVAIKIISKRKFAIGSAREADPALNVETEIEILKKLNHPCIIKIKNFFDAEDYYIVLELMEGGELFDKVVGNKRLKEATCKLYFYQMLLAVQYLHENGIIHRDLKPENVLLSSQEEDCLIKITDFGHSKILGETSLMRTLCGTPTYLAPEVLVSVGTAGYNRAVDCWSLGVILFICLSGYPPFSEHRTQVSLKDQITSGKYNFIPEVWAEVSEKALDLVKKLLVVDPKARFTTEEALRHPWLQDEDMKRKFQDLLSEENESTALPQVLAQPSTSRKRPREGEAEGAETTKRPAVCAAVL

COCCCc1cc(Cl)c(Cl)cc1NC(=O)Nc1c(C)c(-c2cnn(C)c2)nn1-c1ccccc1 [Example 15, 1-(4,5-dichloro-2-(3-methoxypropyl)phenyl)-3-(1′,4-dimethyl-1-phenyl-1H,1′H-[3,4′-bipyrazol]-5-yl)urea]
Avg POC (MARK2): 101.5 POC | Avg POC (CK1gamma3): 112.5 POC | Avg POC (NEK11): 75 POC | Avg POC (EphB4): 132.5 POC | Avg POC (AMPK(A1/B1/G1)): 149 POC | Avg POC (Rsk1): 118 POC | Avg POC (Abl-P): 140.5 POC | Avg POC (Axl): 107 POC | Avg POC (NLK): 117 POC | Avg POC (MAP4K2): 112.5 POC | Avg POC (CLK3): 105 POC | Avg POC (PRKG1alpha): 113.5 POC | Avg POC (Rse): 109 POC | Avg POC (Fms): 94 POC | Avg POC (JNK2alpha2): 92 POC | Avg POC (p38gamma): 108 POC | Avg POC (CHK2): 130 POC | Avg POC (PKCdelta): 96 POC | Avg POC (TAO3): 95 POC | Avg POC (NEK3): 120 POC | Avg POC (WNK2): 122.5 POC | Avg POC (Hck): 89 POC | Avg POC (EphB2): 112.5 POC | Avg POC (p38delta): 100.5 POC | Avg POC (CAMK2b): 101.5 POC | Avg POC (Pim-1): 108 POC | Avg POC (KIT): 99.5 POC | Avg POC (SGK3): 132 POC | Avg POC (Tie2): 160.5 POC | Avg POC (FAK2): 102.5 POC | Avg POC (DAPK1): 121.5 POC | Avg POC (Plk2): 105 POC | Avg POC (Ret): 91.5 POC | Avg POC (CK2alpha2): 112.5 POC | Avg POC (Pim-3): 105.5 POC | Avg POC (FGFR2): 108 POC | Avg POC (ROCK-II): 99 POC | Avg POC (GSK3alpha): 131 POC | Avg POC (PKCepsilon): 97 POC | Avg POC (p70S6K): 130.5 POC | Avg POC (MYLK): 111.5 POC
